# Data from a melting point compilation (Tetko et al.; mined from patent text by program, amines drawn as free bases though some values may be those of a salt).
row,Structure (SMILES),melting point [°C]
1,COc1ccc(CCCc2ccc(O)cc2)c(O)c1,95 to 96
2,c1ccc2cc3[nH]c(SCc4nccs4)nc3cc2c1,153 to 157
3,CC(C)(C)OC(=O)C(CCCCNC(=O)OCc1ccccc1)NC(=O)C(F)(F)F (stereo unspecified),77 to 79
4,Cc1ccc(S(=O)(=O)c2nc(Cl)c([N+](=O)[O-])s2)cc1,153 to 154
5,COc1ccc2c(c1)C(CCNC(C)=O)=C(Cc1ccccc1)C2,133 to 135
6,Fc1ccc(Nc2ncnc3[nH]ccc23)cc1Cl,274 to 275
7,CC1CCN(C2(c3ccc(C#CC(=O)Nc4ccc(-c5ccc(Cl)cc5)cc4)cc3)CC2)CC1,128 to 129
8,O=C1C(c2ccccc2)CC=C2c3ccsc3CCN12 (stereo unspecified),159 to 161
9,Cc1cccc(NC(=O)CN2C(=O)c3ccccc3C2=O)c1,207
10,CC(C)OC(=O)c1ncn2c3cccc(Cl)c3c(=O)n(C)c12,216 to 220
11,O=C(Nc1ccc(C[C@H](NS(=O)(=O)N2CCSCC2)C(=O)O)cc1)c1c(Cl)cncc1Cl,173
12,N#Cc1cc(F)c(-n2nc(C(F)(F)F)n(C(F)F)c2=O)cc1F,68
13,N#Cc1ccccc1Nc1cc2c(cc1Nc1ccccc1)C(=O)NC2=O,115 to 117
14,O=S1OCCN1c1cc(-c2ccnc(Nc3cccc(Cl)c3)n2)ccn1 (stereo unspecified),202 to 203
15,C=Cc1c(N=C2NCCN2)cccc1OC,126
16,CC(=O)c1ccc(C(=C2CC(C)(C)CC(C)(C)C2)c2ccc(O)cc2)cc1,195 to 196
17,Nc1c(-c2ccc(O)cc2)nnn1-c1ccc(C(F)(F)F)cc1Cl,161 to 162
18,CCOC(=O)C=Cc1ccc(N)c(O)c1,134 to 135
19,O=C1c2ccccc2C(=O)N1c1ncc(C(Cl)Cl)nc1CO,188 to 189
20,Cc1ccc([N+](=O)[O-])cc1Nc1nccc(-c2ccc(Cl)nc2)n1,210 to 212
21,O=S(=O)(c1ccc(Nc2nccc(-c3ccc(C(F)(F)F)cc3)n2)cc1)N1CCOCC1,240 to 241
22,Cc1n[nH]c(=O)n1-c1ccc(OC(F)(F)C(F)F)cc1,204 to 205
23,OCC1OC(n2cnc3c(Nc4ccc(Cl)cc4)ccnc32)C(O)C1O (stereo unspecified),215
24,O=S(Cc1ccccc1)c1ncc(Br)cn1 (stereo unspecified),101
25,CCCc1cc(C(=O)NCCC(=O)O)ccc1OC(C(=O)NS(=O)(=O)c1ccc(C(C)C)cc1)c1ccc2c(c1)OCO2 (stereo unspecified),199 to 201
26,CON(Cc1ccc(Cl)c(Cl)c1)C(=O)C1=C(O)C(=O)N(C)C1,149

row,Structure (SMILES),melting point [°C]
1,O=C(CC1CCCC1)c1ccc(Cn2ccc3ncnc-3c2)cc1,153 to 156
2,CC(C)(C)c1cc(CCC(=O)NCCNc2cccc(Cl)c2C#N)cc(C(C)(C)C)c1O,164 to 167
3,O=S(=O)(N=Cc1cccnc1)c1ccccc1,123
4,CNCCOc1ccc(C(=O)NC)cc1,95 to 96
5,CCc1nc2c(C)nc(C)cc2n1-c1ccc(CCOC(=O)NS(=O)(=O)c2ccc(C)cc2)cc1,158
6,OCCC[C@H]1OC[C@H](c2ccc(Cl)c3ccccc32)CO1,127 to 129
7,O=C(O)CCc1cc(CCNS(=O)(=O)c2ccc(Cl)cc2)cc(Cc2ccc(F)cc2)c1,85 to 87
8,COc1ccc2[nH]c3c(c2c1[N+](=O)[O-])CCC3=O,293
9,CCC1CC2=C(CO1)C(=O)c1ccccc1C2=O (stereo unspecified),98 to 101
10,O=C1CCC(C(=O)O)C(=O)N1 (stereo unspecified),116 to 118
11,O=C1NCc2ccsc21,104 to 105
12,OC/C=C/c1ccc(O)c(OCc2ccccc2)c1,99 to 101
13,Cc1nc(N2CCN(CCCc3ccccc3)C2=O)sc1C(=O)O,218 to 221
14,CCC(c1ccncc1)N1CCCNS1(=O)=O (stereo unspecified),90 to 105
15,COc1cc(-c2nc3ccccc3n2Cc2cccc(C)c2)cc(OC)c1OC,78
16,CCCN(C)c1ccc(-c2c(Cl)c(=O)c2=O)cc1,162
17,CN(C)C(=Nc1ccccc1)N(C)N1C(=O)c2ccccc2C1=O,146 to 148
18,O=C1/C(=C(\NC2CCCCC2)c2ccccc2)Sc2ccccc21,122 to 123
19,c1ccc(COc2ccc(N3c4ccccc4Sc4ccccc43)cc2)cc1,144 to 146
20,N#CCCSC1C2=C(CCCC2)C(=O)N1c1ccc(Cl)cc1F (stereo unspecified),101 to 103
21,CC(=O)OCC1OC(n2cc(C#N)c3c(Cl)nc(Cl)nc32)C(OC(C)=O)C1OC(C)=O (stereo unspecified),70 to 75
22,COC(=O)[C@@H]1CN(CCCCN2C(=O)c3cc(Cl)ccc3S2(=O)=O)CC[C@H]1n1c(=O)[nH]c2ccccc21 (relative stereo),170 to 176
23,Clc1ccc2c(N[C@@H]3CCC[C@H](Nc4ccnc5cc(Cl)ccc45)C3)ccnc2c1,> 250
24,CSC(=S)Oc1cnc(C)c2c1COC(C)(C)O2,88 to 90
25,NS(=O)(=O)c1cc2[nH]c(CCCCc3ccccc3)nc2cc1Cl,176 to 180
